Values quoted from earlier work, collected in article PMC8155967, “Investigating the Potential of Transdermal Delivery of Avanafil Using Vitamin E-TPGS Based Mixed Micelles Loaded Films” (Pharmaceutics, 2021).
Values after ≈ are worked out from the molar mass of the structure shown.

partition coefficient: 2.78
solubility in water: 30 µg/mL (≈ 62 µM)
SMILES: COc1ccc(CN=c2[nH]c(N3CCC[C@H]3CO)ncc2C(=O)NCc2ncccn2)cc1Cl [AVA, Avanafil]
